This note sets out measurements from patent publication US9150508B2, “Sulfonamide compounds and their use in the modulation retinoid-related orphan receptor” (Glaxo Group Limited, priority 2011, dated 2015).

The structures appear in SMILES notation.

In assay [1] the test system is IL-17A secreted from antiCD3/CD28 stimulated Peripheral Blood Mononuclear cells (PBMC). The experiment in a line: Peripheral Blood Mononucleocyte Cell Assay (PBMC Assay-IL-17). In kind it is cell-based. To be noted: inhibition of IL-17A release, CD3/CD28 bead stimulated human PBMC, 48 hours; read-out: mean pIC50 (converted). From the text: Peripheral Blood Mononucleocyte Cell Assay (PBMC Assay-IL-17)
RORs (Retinoic Acid Related Orphan Receptors) are members of the class 1 nuclear receptor family. RORs regulate gene transcription by binding to specific DNA response element (RORE) as a monomer and have critical roles of in development, immunity, circadian rhythm, and cellular metabolism (recently reviewed by A Jetten, Nuclear Receptor Signaling, 2009, 7, 1-32) One member of this nuclear receptor family, RORγt, has been identified as a regulator of differentiation and development of IL-17-expressing human and mouse CD4+ T cells, so called Th17 cells which play a role in both host defence and inflammatory disorders. RORγt is also required for transcription of the genes encoding IL-17A and IL-17F in iNKT, NKT (Immunol 2009, 2(5), 383-392, J. Immunol, 2008, 180, 51(67), 5171-5171), γδTcells (J. Resp and Crit. Care Med 2010, 182(4), 464-476), CD8^+ Tcell (J Leukocyte Biol, 2007, 82(2), 354-360) and finally CD4-CD8-TCRαβ^+ T cells (J. Immunol. 2008, 181 8761-8766). Additional immune cells such as eosinophils, neutrophils and macrophages can also be source of IL17A in some allergic inflammation related to asthma (J Allergy Clin Immunol 2001, 108, 430-438; J. Immunol, 2008, 181, 6117-6124; Immunity, 2004, 21, 467-476), however, the link with RORγt has not yet been confirmed in the literature.
This assay is designed to measure levels of IL-17A secreted from antiCD3/CD28 stimulated frozen Peripheral Blood Mononuclear cells (PBMC) isolated from human blood with the aim of identifying inhibitors of IL-17A release.
• 1. Ensure no external endotoxin is present in media and reagents used in the assay. • 2. The compounds for screening are dispensed into a master plate at 10 mM top concentration which are serially diluted 1:3 across 11 points in DMSO, then 500 nl is transferred into a 384-well flat-bottomed Greiner plate to which 50 ul of cell suspension is added: for the single shot screening the highest concentration of compound is 10^−5M; for 11 point full curve dose response studies the highest concentration is […]. • Controls: • As a low control, DMSO (as supplied, for example, by VWR) (final concentration 1%) in column 6 (16 points). • As a high control, 5-(4-fluorophenyl)-2-ureidothiophene-3-carboxamide (obtainable from, for example, Sigma) at a final concentration of 10^−4 M in DMSO should be used in column 18 (16 points). • If the compounds dispensed earlier than the day of the assay, they should be kept at −20° C.
Protocol Step 2: Day 1: Thawing and Handing of PBMC • 1. Thaw PBMC in the vial using water bath (37° C.). […] Transfer the contents of the vial into 50 mL Falcon tube. • 3. Add 10 mL of Assay Media drop by drop to decrease the concentration of DMSO (as supplied, for example, by VWR) in the freezing media gradually. • 4. Spin down the cells in a centrifuge (1000 rpm-5 mins). • 5. Decant the supernatant. • 6. Re-suspend the cells in 10 mL of Assay Media. • 7. Transfer of 0.1 mL of suspension into Cedex counting tube. • 8. Add 0.9 mL of media to achieve volume of the suspension for counting up to 1 mL. Count the cells on Cedex using 1:10 dilution factor settings. • 9. Make the cell suspension at the concentration 8×10^5 cells/mL. to give a final number of 40,000 cells/well. Protocol Step 3: Day 1: Stimulation of PBMC with CD3/CD28 beads • 1. Add well mixed CD3/CD28 Dynabeads (as supplied, for example, by Dynal) to achieve ratio bead:cell=2:1 (i.e a dilution of 1 in 20). Mix thoroughly. • 2. Dispense the suspension into the 384 Assay Plates using Multidrop (50 ul per well). • If the volume of cell suspension is large, mix the suspension after dispensing into every other plate. • 3. Cover the plates with the lids and place them to the humidified incubator (37° C., 5% CO2) for 48 hours. Protocol Step 4: Day 2: MSD plates preparation • 1. […]

In assay [2] the target is T1, Human RORγ Ligand Binding Domain (RORγ-LBD) (Homo sapiens, UniProt P51449).
T1 construct: His6 plus thrombin site) (N); made in house; host or cells: E. coli BL21(DE3), modified pET21a
T1 sequence (P51449 263-518): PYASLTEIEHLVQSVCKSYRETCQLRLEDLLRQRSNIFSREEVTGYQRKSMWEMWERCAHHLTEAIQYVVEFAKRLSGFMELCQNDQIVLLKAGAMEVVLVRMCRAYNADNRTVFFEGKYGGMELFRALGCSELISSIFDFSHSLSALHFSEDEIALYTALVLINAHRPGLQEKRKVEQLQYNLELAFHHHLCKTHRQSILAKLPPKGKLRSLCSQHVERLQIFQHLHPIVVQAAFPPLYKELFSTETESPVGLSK
Briefly: Dual Fluorescence Energy Transfer (FRET) assay: RORγ-LBD / SRC1(2) co-activator peptide interaction. In kind it is biochemical. To be noted: RORγ-LBD/SRC1(2) peptide interaction, read-out: mean pIC50 (converted). From the text: Dual Fluorescence Energy Transfer (FRET) Assay
This assay is based on the knowledge that nuclear receptors interact with cofactors (transcription factors) in a ligand dependent manner. RORγ is a typical nuclear receptor in that it has an AF2 domain in the ligand binding domain (LBD) which interacts with co-activators. The sites of interaction have been mapped to the LXXLL (SEQ ID NO:1) motifs in the co-activator SRC1(2) sequences. Short peptide sequences containing the LXXLL (SEQ ID NO:1) motif mimic the behavior of full-length co-activator.
This assay measures ligand-mediated interaction of the co-activator peptide with the purified bacterial-expressed RORγ ligand binding domain (RORγ-LBD) to indirectly assess ligand binding. RORγ has a basal level of interaction with the co-activator SRC1(2) in the absence of ligand, Thus, it is possible to find ligands that inhibit or enhance the RORγ/SRC1(2) interaction.
Human RORγ Ligand Binding Domain (RORγ-LBD) was expressed in E. coli strain BL21(DE3) as an amino-terminal polyhistidine tagged fusion protein. DNA encoding this recombinant protein was sub-cloned into a modified pET21a expression vector (Novagen). A modified polyhistidine tag (MKKHHHHHHLVPRGS) (SEQ ID NO:2)was fused in frame to residues 263-518 of the human RORγ sequence.
Approximately 50 g E. coli cell pellet was resuspended in 300 mL of lysis buffer (30 mM imidazole pH 7.0 and 150 mM NaCl). Cells were lysed by sonication and cell debris was removed by centrifugation for 30 minutes at 20,000 g at 4° C. The cleared supernatant was filtered through a 0.45 uM cellulose acetate membrane filter. The clarified lysate was loaded onto a column (XK-26) packed with ProBond Nickel Chelating resin (InVitrogen), pre-equilibrated with 30 mM imidazole pH 7.0 and 150 mM NaCl. After washing to baseline absorbance with the equilibration buffer, the column was developed with a gradient from 30 to 500 mM imidazole pH 7.0. Column fractions containing the RORγ-LBD protein were pooled and concentrated to a volume of 5 mLs. The concentrated protein was loaded onto a Superdex 200 column pre-equilibrated with 20 mM Tris-Cl pH 7.2 and 200 mM NaCl. The fractions containing the desired RORγ-LBD protein were pooled together.
Purified RORγ-LBD was buffer exchanged by exhaustive dialysis [3 changes of at least 20 volumes (>8000×)] against PBS [100 mM NaPhosphate, pH 8 and 150 mM NaCl]. The concentration of RORγ-LBD was approximately 30 uM in PBS. Five-fold molar excess of NHS-LC-Biotin (Pierce) was added in a minimal volume of PBS. This solution was incubated with occasional gentle mixing for 60 minutes at ambient room temperature. The modified RORγ-LBD was dialyzed against 2 buffer changes—TBS pH 8.0 containing 5 mM DTT, 2 mM EDTA and 2% sucrose—each at least 20 times of the volume. The modified protein was distributed into aliquots, frozen on dry ice and stored at −80° C. The biotinylated RORγ-LBD was subjected to mass spectrometric analysis to reveal the extent of modification by the biotinylation reagent. In general, approximately 95% of the protein had at least a single site of biotinylation and the overall extent of biotinylation followed a normal distribution of multiple sites ranged from one to five.
A biotinylated peptide corresponding to amino acid 676 to 700 ([…]) (SEQ ID NO:3)of the co-activator steroid receptor coactivator SRC1(2) was generated using similar method.
Biotinylated SRC1(2) solution was prepared by adding an appropriate amount of biotinylated SRC1(2) from the 100 uM stock solution to a buffer containing 10 mM of freshly added DTT from solid to give a final concentration of 40 nM. An appropriate amount of Europium labeled Streptavidin was then added to the biotinylated SRC1(2) solution in a tube to give a final concentration of 10 nM. The tube was inverted gently and incubated for 15 minutes at room temperature. […]

Regarding `CCc1ccc(N(CC(C)C)S(=O)(=O)c2ccc(OCc3c(C)noc3C)cc2)cc1` [Product P160, 4-((3,5-dimethylisoxazol-4-yl)methoxy)-N-(4-ethylphenyl)-N-isobutylbenzenesulfonamide], the IC50 is not above 1 µM in assay [1] and not above 0.0158 µM in assay [2].
